Source: patent US11028127B2, “Peptides capable of reactivating p53 mutants” (Yeda Research and Development Co. Ltd., priority 2013, dated 2021)

Columns and labels:
Format in all cases: cell-based
[1] = tested on: MDA-MB-231 breast cancer cells (Mut-p53, position 280); test: Crystal violet viability assay; conditions: shCon cells
Source text: (§1) FIGS. 15A and 15B are bar graphs illustrating the effect of the various indicated peptides on the viability of breast cancer cells expressing different Mut-p53 isoforms, as determined by crystal violet assay. FIG. 15A: MDA-MB-231 cells expressing Mut-p53 with a mutation at position 280 of the DBD. FIG. 15B: SKBR3 cells expressing Mut-p53 with mutation at position 175 within the DBD. The bar graphs in FIGS. 15A and 15B show for each tested peptide the optical density reads at 595 nm, reflecting the number of cells in the plate after treatment, normalized to the non-treated (NT) samples.
(§2) Cells were cultured in 96 wells plates with 2500-4000 cells/well in 0.1 ml and incubated overnight at 37° C. in order to adhere to the plate. Serial dilutions of different peptides (0.5 μg/ml) were added in 0.1 ml aliquots and the plates incubated for additional 48 h at 37° C. Then medium was removed and cell lysis was determined by staining the cells with crystal violet (0.5%) in methanol/water (1:4, v/v), 50 μl each well, for 10 min, followed by 3 washes with PBS. Afterwards, 10% acetic acid (50 μl) was added to each well and shaken for 10 min. Then, automatic plate reading was performed at 595 nm.
(§3) Experiments using different cancer cell lines expressing endogenously different p53 mutant isoforms were performed. FIGS. 15A and 15B illustrate two representative experiments performed on MDA-MB-231 (FIG. 15A) and SKBR3 (FIG. 15B) breast cancer cells expressing Mut-p53 with mutations at positions 280 or 175, respectively, within the DNA Binding Domain (DBD). To examine the peptides' specificity for Mut-p53, the control used was such cells with a knockdown of Mut-p53 (shp53).

[2] = tested on: SKBR3 breast cancer cells (Mut-p53, position 175); test: Crystal violet viability assay; conditions: shCon cells
Source text: as §1, §2, §3

[3] = tested on: ES2 ovarian carcinoma cells (Mut-p53, position 241); test: Annexin-V/PI apoptosis assay by flow cytometry; conditions: 12 ug/ml
Description: (§4) FIGS. 17A, 17B, 17C and 17D illustrate representative experiments performed on ES2 ovarian carcinoma cells expressing Mut-p53 mutated at position 241 within the DBD. […] Cells were harvested and an apoptosis assay (FIGS. 17A and 17B) was performed using the Annexin-V staining kit (Roche, REF 11 988 549 001). Non-fixed cells were stained with both anti Annexin FITC conjugated antibody to detect apoptotic cells, and PI (propidium iodide) to stain dead cells, according to the manufacturer's instructions. Stained cells were then analyzed by flow cytometry. A total of 10,000 cells was counted for each sample and divided into four sub populations according to staining intensity; cells negative for both PI and Annexin (−PI, −Annexin) are termed live; cells negative for PI and positive for Annexin (−PI, +Annexin) are going through early stages of apoptosis; cells positive for PI and Annexin (+PI, +Annexin) are dead cells that underwent an apoptotic process; and cells positive for PI and negative for Annexin (+PI, −Annexin) are assumed as dead cells that died by a non-apoptotic process such as necrosis.
FIGS. 17A and 17B illustrate a representative experiments performed on ES2 ovarian carcinoma cells (FIGS. 17A-D) expressing Mut-p53 with a mutation at positions 241 within the DBD. […] Cells were harvested, and 60% of the cells were taken for Annexin-PI apoptosis assay and 40% for extraction of RNA, cDNA synthesis and real time PCR analysis. Apoptosis was assayed using the Annexin-V staining kit (Roche, REF 11 988 549 001). Non-fixed cells were stained with both anti Annexin FITC conjugated antibody to detect apoptotic cells, and PI (propidium-iodide) to stain dead cells permeable to the compound, according to the manufacturer's instructions. Stained cells were then analyzed by flow cytometry. A total of 10,000 cells was counted for each sample and divided into four subpopulations according to staining intensity: cells negative for both PI and Annexin (−PI, −Annexin) are termed live; cells negative for PI and positive for Annexin (−PI, +Annexin) are going through early stages of apoptosis; cells positive for PI and Annexin (+PI, +Annexin) are dead cells that underwent an apoptotic process; and cells positive for PI and negative for Annexin (+PI, −Annexin) are assumed to be dead cells that died a non-apoptotic death such as necrosis. […] Treatment with pCAPs 242 and 250 causes a rapid increase in apoptotic cells followed by cell death and after 5 hours of treatment 12% of cells are Annexin positive and about 7% are dead. After 16 and 24 hours of treatment with pCAP 250 the apoptotic population increases to about 27% and dead cells accumulate to 29% at 16h and 36% after 24h. […] CD95 and Btg-2 expression is elevated up to 6 fold over non-treated cells.

[4] = tested on: ES2 ovarian carcinoma cells (Mut-p53, position 241); test: qRT-PCR of p53 target genes (p21, PUMA, CD95, Btg-2); conditions: 12 ug/ml, over non-treated cells
Description: as §4
FIGS. 17A and 17B illustrate a representative experiments performed on ES2 ovarian carcinoma cells (FIGS. 17A-D) expressing Mut-p53 with a mutation at positions 241 within the DBD. […] Stained cells were then analyzed by flow cytometry. […]

| Substance | Mut-p53 specific effect on cell viability, MDA-MB-231 shCon cells [1] | Mut-p53 specific effect on cell viability, SKBR3 shCon cells [2] | apoptotic population ([3]; after 16 and 24 hours of treatment) | Annexin positive cells ([3]; after 5 hours of treatment) | dead cells ([3]; after 5 hours of treatment) | dead cells ([3]; after 24h) | dead cells ([3]; at 16h) | p21 and PUMA mRNA expression increase over time [4] |
| --- | --- | --- | --- | --- | --- | --- | --- | --- |
| HANLHHTRRRRRRRRRRR [pCAP-146] | significant decrease | almost no specific effect | – | – | – | – | – | – |
| myr-RRHSTPHPD [pCAP-250] | – | – | about 27% | 12% | about 7% | 36% | 29% | up to 10 fold |
